Consider 1 compound from US20250319019A1, “BUCCOMUCOADHESIVE PATCH-BASED DRUG DELIVERY SYSTEM FOR TACROLIMUS” (priority 2022, published 2025).

The nature of data set [1]: In-vivo pharmacokinetic evaluation, single dose. On the set-up: species or system New Zealand White rabbits. Particulars: New Zealand White, whole blood. As for the experimental part:
The study was performed in New Zealand White rabbits as per the CPCSEA guidance. Overnight fasted animals were anaesthetised with Ketamine (30-40 mg/kg) and Xylazine (10 mg/kg) and 1 mg BAPTac patch was administered on the buccal surface of the oral cavity. The control group was administered 1 mg tacrolimus in PBS and 30% Ethanol. 0.5-0.75 ml of blood was taken from each rabbit via the marginal ear vein using 23 gauge needles through a butterfly cannula. The blood samples were collected before initiation of the treatment and after the administration of oral Tacrolimus or Tacrolimus-SLN-loaded buccal patch at time intervals of 15 min, 30 min, 1 h, 1.5 h, 2 h, 4 h, 6 h, 8 h, 12 h and 24 hours for the single dose PK study. Blood samples were collected in EDTA tubes, aliquoted and stored in amber-coloured tubes at −80° C. until quantification by LC-MS/MS.

The conditions of data set [2]: poor and variable, intestinal absorption; background statement; cited from earlier work.

On to `C=CC[C@@H]1/C=C(\C)C[C@H](C)C[C@H](OC)[C@H]2O[C@@](O)(C(=O)C(=O)N3CCCC[C@H]3C(=O)O[C@H](/C(C)=C/[C@@H]3CC[C@@H](O)[C@H](OC)C3)[C@H](C)[C@@H](O)CC1=O)[C@H](C)C[C@@H]2OC` (relative stereo) [Tacrolimus, [3S[3R*[E(1S*,3S*,4S*)],4S*,5R*,8S*,9E,12R*,14R*,15S*,16R*,18S*,19S*, 26aR*]]5,6,8,11,12,13,14,15,16,17,18,19,24,25,26,26a-hexadecahydro-5,19-dihydroxy-3-[2-(4-hydroxy-3-methoxycyclohexyl)-1-methylethenyl]-14,16-dimethoxy-4,10,12,18-tetramethyl-8-(2-propenyl)-15,19-epoxy-3H-pyrido[2,1-c][1,4]oxaazacyclotricosine-1,7,20,21(4H,23H)-tetrone, monohydrate], for which, in data set [1] (1 mg, heading: Average Tac conc., rabbit blood, 0.25 (15 mins) after single 1 mg dose (oral or buccal patch), LC-MS/MS), the concentration at 0.25 h amounted to 3.6 ng/mL. The compound further came in with a concentration at 0.5 h in data set [1] (1 mg, heading: Average Tac conc., rabbit blood, 0.5 (30 mins) after single 1 mg dose (oral or buccal patch)) of 12.3 ng/mL. Besides, the concentration at 1 h in data set [1] (1 mg, heading: Average Tac conc., rabbit blood, 1.0 (60 mins) after single 1 mg dose (oral or buccal patch)) was 17.2 ng/mL. Further, the concentration at 1.5 h in data set [1] (1 mg, heading: Average Tac conc., rabbit blood, 1.5 (90 mins) after single 1 mg dose (oral or buccal patch)) amounted to 46.9 ng/mL. Moreover, the concentration at 2 h in data set [1] (1 mg, heading: Average Tac conc., rabbit blood, 2.0 (120 mins) after single 1 mg dose (oral or buccal patch)) came to 31.3 ng/mL. In data set [1] (1 mg, heading: Average Tac conc., rabbit blood, 4.0 (240 mins) after single 1 mg dose (oral or buccal patch)), this compound displayed a concentration at 4 h of 14.5 ng/mL. The concentration at 6 h in data set [1] (1 mg, heading: Average Tac conc., rabbit blood, 6.0 (480 mins) after single 1 mg dose (oral or buccal patch)) stood at 12.3 ng/mL. In data set [1] (1 mg, heading: Average Tac conc., rabbit blood, 8.0 (640 mins) after single 1 mg dose (oral or buccal patch)), this compound gave a concentration at 8 h of 11.8 ng/mL. For the same compound, the concentration at 12 h in data set [1] (1 mg, heading: Average Tac conc., rabbit blood, 12.0 (720 mins) after single 1 mg dose (oral or buccal patch)) was determined as 7.9 ng/mL. This compound showed a concentration at 24 h in data set [1] (1 mg, heading: Average Tac conc., rabbit blood, 24.0 (1440 mins) after single 1 mg dose (oral or buccal patch)) of 2.4 ng/mL. Further, in data set [1] (rabbit, single 1 mg dose (oral or buccal patch), read-out: Elimination t1/2 (converted)), the half-life was 2.73 ± 2.9 h. In addition, in data set [1] (rabbit, single 1 mg dose (oral or buccal patch), read-out: Mean AUC0-24), the AUC(0-t) was determined as 250 ± 78.2 ng·h/mL. Moreover, the “bioavailability (average)” value in data set [2] is on record as 25%.
